Measured values taken from patent publication US5824679A, “Phosphanoxides--preparation and use” (Boehringer Mannheim GmbH, priority 1994, dated 1998).
pKi: −log10 of the molar value.

Columns and labels:
horse thrombin = assay: Thrombin time (clotting of human citrate plasma on addition of thrombin reagent, ball coagulometer); assay type: biochemical, human plasma; horse thrombin; settings: 37° C., difference to control (ca. 24 sec); for TT0.5 (thrombin time, difference to the control): 0.5 μM in human plasma; for TT5 (thrombin time, difference to the control): 5 μM in human plasma
Protocol: A conventional test in clinical coagulation diagnostics is the thrombin time. This parameter measures the action of thrombin on fibrinogen and the formation of clots. Inhibitors of thrombin result in an extended thrombin time.
In order to obtain plasma 9 parts of fresh blood from healthy donors was mixed with one part of sodium citrate solution (0.11 mol/l) and it was centrifuged for 10 minutes at room temperature at ca. 3000 r.p.m. The plasma was removed by pipette and can be stored at room temperature for ca. 8 hours.
200 μl citrate plasma was incubated for 2 minutes at 37° C. in a ball coagulometer (KC10 from the Amelung Company). 10 μl dimethylsulfoxide (DMSO) or a solution of the active substance in DMSO was added to 190 μl pre-heated thrombin reagent (Boehringer Mannheim GmbH; contains ca. 3 U/ml horse thrombin and 0.0125M Ca^++). On addition of 200 μl of this solution to the plasma a stopwatch was started and the time at which coagulation starts was determined.
The measured thrombin times in seconds are given in the following table as a difference to the control. The concentrations of the active substances in human plasma were 5 μM (TT5) and 0.5 μM (TT0.5).

human α thrombin = biological target: T1, human α thrombin (Homo sapiens, UniProt P00734); assay: Thrombin inhibition, kinetic measurement with substrate H-(D)-Phe-Pro-Arg-pNA; assay type: biochemical; settings: 0.1M phosphate buffer, 0.2M sodium chloride, 0.5% polyethylene glycol 6000, pH=7.5, 25° C.
T1 construct: human α thrombin; purchased Sigma
Protocol: The kinetic measurements were carried out in 0.1M phosphate buffer that contained 0.2M sodium chloride and 0.5% polyethylene glycol 6000 at a pH=7.5 and 25° C. with the substrate H-(D)-Phe-Pro-Arg-pNA; Kabi and human α thrombin (Sigma, specific activity=2150 NIH-units/mg) in polystyrene semi-microcuvettes in a total volume of 1 ml.
In a preliminary test each active substance was determined as to whether it inhibits thrombin rapidly or slowly. For this the reaction was firstly started by adding 0.03 NIH units thrombin to a 100 μM solution of the substrate and the active substance. In a second experiment, substrate was added to a solution of thrombin and the active substance which had been incubated for 5 minutes. The increase in the concentration of p-nitroaniline with time was monitored spectroscopically (UV-VIS spectrophotometer Lambda-2 from the Perkin-Elmer Company) at 405 nm for 12 min.
Since the measured curves obtained in both experiments were linear and parallel, the active substances of the following table are rapid thrombin inhibitors.
The inhibition constants Ki were then determined as follows. The substrate was used at concentrations of 100 μM, 50 μM, 30 μM, 20 μM and at each substrate concentration a measurement was carried out without inhibitor and three measurements were carried out in the presence of various concentrations of the inhibitors listed in the following table. The reactions were started by adding thrombin. The increase in absorbance at 405 nm due to the formation of p-nitroaniline was monitored over a time period of 12 minutes. Measurement points (time versus absorbance) were transferred to a PC at intervals of 20 seconds. The rates VO (change in absorbance per second; measurements without inhibitor) and Vi (measurements with inhibitor) were determined by linear regression. Only that part of the measurement was used in which the substrate concentration had decreased by less than 15%. Km ' and Vmax were determined from a measurement series (constant inhibitor concentration, variable substrate concentrations) by a non-linear fit to the equation [formula]
Finally Ki was calculated from the entire series of measurements by a non-linear fit to the equation [formula]
The Michaelis constant Km was 3.8±2 μm in all measurements.
The inhibition constants Ki of the active substances are stated in the following table in units of μM.

SMILES	TT0.5 (thrombin time, difference to the control) (horse thrombin)	TT5 (thrombin time, difference to the control) (horse thrombin)	pKi (human α thrombin)
Cc1cc(OCCNc2ccncc2)cc(N(CP(C)(C)=O)S(=O)(=O)c2ccccc2)c1 [Example 1, N-(Dimethyloxophosphinylmethyl)-N-{3-methyl-5-[2-(pyridin-4-ylamino)-ethoxyl]-phenyl}-benzene sulfonamide]	33 s	175 s	7.00
COc1ccccc1S(=O)(=O)N(CP(C)(C)=O)c1cc(C)cc(OCCNc2ccncc2)c1 [Example 2, N-(Dimethyloxophosphinvlmethyl)-N-{3-methyl-5-[2-(pyridin-4-ylamino)-ethoxyl]-phenyl}-2-methoxy-benzene-sulfonamide]	115 s	300 s	8.10
CCCCOc1ccccc1S(=O)(=O)N(CP(C)(C)=O)c1cc(C)cc(OCCNc2ccncc2)c1 [Example 3, N-(Dimethyloxophosphinylmethyl)-N-{3-methyl-5-[2-(pyridin-4-ylamino)-ethoxyl]-phenyl}-2-butoxy-benzene-sulfonamide]	50 s	300 s	8.40
CCCCCCOc1ccccc1S(=O)(=O)N(CP(C)(C)=O)c1cc(C)cc(OCCNc2ccncc2)c1 [Example 4, N-(Dimethyloxophosphinylmethyl)-N-{3-methyl-5-[2-(pyridin-4-ylamino)-ethoxyl]-phenyl}-2-hexyloxy-benzene-sulfonamide]	11 s	113 s	7.92
CCCOc1ccccc1S(=O)(=O)N(CP(C)(C)=O)c1cc(C)cc(OCCNc2ccnnc2)c1 [Example 6]	18 s	122 s	7.55
CCOc1ccccc1S(=O)(=O)N(CP(C)(C)=O)c1cc(C)cc(OCCNc2ccnnc2)c1 [Example 7]	14 s	109 s	7.22
Cc1cc(OCCNc2ccnnc2)cc(N(CP(C)(C)=O)S(=O)(=O)c2ccccc2OC(C)C)c1 [Example 8]	47 s	180 s	7.46
